From ChEMBL document CHEMBL2311536 (J Med Chem, 2013)
Active and inactive are the calls of the source. The calls are words filed in the database; no cut-off is given here.

How the values were obtained:
Homo sapiens = organism: Homo sapiens; test: (§1) Displacement of 2OG from FIH (unknown origin) expressed in Escherichia coli at 400 uM
Egl nine homolog 1 [1] = target: T1, Egl nine homolog 1 (Homo sapiens, UniProt Q9GZT9); test: Displacement of 2OG from catalytic domain of PHD2 (181 to 426) (unknown origin) Zn2 expressed in Escherichia coli at 150 uM
Target sequence in this assay (Q9GZT9 2-426 limits assumed): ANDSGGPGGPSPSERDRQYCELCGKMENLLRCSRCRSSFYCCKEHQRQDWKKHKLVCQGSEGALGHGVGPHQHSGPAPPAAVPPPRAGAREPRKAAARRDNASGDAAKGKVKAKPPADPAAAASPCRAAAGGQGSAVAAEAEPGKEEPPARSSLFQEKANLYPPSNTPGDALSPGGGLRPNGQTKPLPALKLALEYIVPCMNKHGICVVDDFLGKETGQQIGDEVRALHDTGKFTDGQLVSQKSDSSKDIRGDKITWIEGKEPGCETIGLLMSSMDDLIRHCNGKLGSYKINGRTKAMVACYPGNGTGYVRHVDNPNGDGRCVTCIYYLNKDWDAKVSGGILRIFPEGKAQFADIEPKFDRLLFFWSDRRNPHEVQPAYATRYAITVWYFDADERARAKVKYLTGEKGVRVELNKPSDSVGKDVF

[2] = target: T2, Lysine-specific demethylase 2A (Homo sapiens) (UniProt Q9Y2K7); test: Displacement of 2OG from FBXL11 (1 to 517) (unknown origin) expressed in Escherichia coli at 800 uM
T2 sequence (whole entry): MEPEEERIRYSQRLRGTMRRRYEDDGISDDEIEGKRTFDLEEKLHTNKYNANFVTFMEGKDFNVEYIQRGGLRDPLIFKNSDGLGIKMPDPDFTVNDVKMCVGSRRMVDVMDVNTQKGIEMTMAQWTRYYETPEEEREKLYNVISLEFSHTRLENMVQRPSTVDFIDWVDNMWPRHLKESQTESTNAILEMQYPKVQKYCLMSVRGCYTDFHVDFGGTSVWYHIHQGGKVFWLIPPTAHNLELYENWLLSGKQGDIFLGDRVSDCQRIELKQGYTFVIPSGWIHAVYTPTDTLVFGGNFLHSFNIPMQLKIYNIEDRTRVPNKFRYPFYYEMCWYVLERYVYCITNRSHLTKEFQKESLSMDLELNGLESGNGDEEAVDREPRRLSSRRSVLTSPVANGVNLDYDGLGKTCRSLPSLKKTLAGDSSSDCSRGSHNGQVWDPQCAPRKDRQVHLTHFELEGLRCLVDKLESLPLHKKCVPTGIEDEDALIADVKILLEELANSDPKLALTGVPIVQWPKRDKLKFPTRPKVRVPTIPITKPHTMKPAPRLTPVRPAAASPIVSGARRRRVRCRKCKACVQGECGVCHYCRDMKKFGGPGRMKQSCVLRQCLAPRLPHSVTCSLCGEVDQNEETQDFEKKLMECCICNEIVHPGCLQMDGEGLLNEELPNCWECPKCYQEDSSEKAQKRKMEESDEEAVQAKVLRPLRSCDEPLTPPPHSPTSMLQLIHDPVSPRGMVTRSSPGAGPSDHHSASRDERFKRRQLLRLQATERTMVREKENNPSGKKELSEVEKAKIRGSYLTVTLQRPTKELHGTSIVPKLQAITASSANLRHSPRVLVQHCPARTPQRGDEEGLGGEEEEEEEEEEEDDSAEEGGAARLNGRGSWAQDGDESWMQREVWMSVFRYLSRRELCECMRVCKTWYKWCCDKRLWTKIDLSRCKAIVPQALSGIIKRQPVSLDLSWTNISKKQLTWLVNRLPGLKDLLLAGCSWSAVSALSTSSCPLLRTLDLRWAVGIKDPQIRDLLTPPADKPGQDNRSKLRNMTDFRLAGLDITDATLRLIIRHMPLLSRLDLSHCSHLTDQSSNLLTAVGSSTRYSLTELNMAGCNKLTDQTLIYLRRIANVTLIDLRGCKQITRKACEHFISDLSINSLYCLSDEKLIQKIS

Egl nine homolog 1 [3] = target: T1, Egl nine homolog 1; test: Binding affinity to human PHD2 catalytic domain (181 to 426) Mn2 expressed in Escherichia coli by NMR spectroscopic analysis
Target sequence in this assay (Q9GZT9 whole entry, the tested form may be a part): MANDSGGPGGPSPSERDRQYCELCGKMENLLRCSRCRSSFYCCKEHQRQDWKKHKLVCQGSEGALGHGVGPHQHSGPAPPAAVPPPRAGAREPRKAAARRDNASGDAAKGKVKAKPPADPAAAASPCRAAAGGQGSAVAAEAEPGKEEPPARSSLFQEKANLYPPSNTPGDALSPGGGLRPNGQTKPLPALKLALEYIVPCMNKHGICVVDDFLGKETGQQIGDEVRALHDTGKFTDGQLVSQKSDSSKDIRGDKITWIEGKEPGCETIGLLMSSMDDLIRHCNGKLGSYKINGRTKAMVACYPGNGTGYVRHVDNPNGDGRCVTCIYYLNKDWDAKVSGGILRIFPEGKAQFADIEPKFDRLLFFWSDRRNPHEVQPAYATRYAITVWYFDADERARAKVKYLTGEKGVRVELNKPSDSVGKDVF

Egl nine homolog 1 [4] = target: T1, Egl nine homolog 1; test: Inhibition of human PHD2 catalytic domain (181 to 426) Mn2 expressed in Escherichia coli by NMR spectroscopic analysis
Target sequence in this assay (Q9GZT9 whole entry, the tested form may be a part): as above

Egl nine homolog 1 [5] = target: T1, Egl nine homolog 1; test: Displacement of [13C]-2OG from catalytic domain of PHD2 (181 to 426) (unknown origin) expressed in Escherichia coli
Target sequence in this assay (Q9GZT9 whole entry, the tested form may be a part): as above

[6] = Binding affinity to human FIH catalytic domain Mn2 expressed in Escherichia coli by NMR spectroscopic analysis
[7] = as §1; settings: Homo sapiens
[8] = Inhibition of human FIH catalytic domain Mn2 expressed in Escherichia coli by NMR spectroscopic analysis
Egl nine homolog 1 [9] = target: T1, Egl nine homolog 1; test: Displacement of 2OG from catalytic domain of PHD2 (181 to 426) (unknown origin) Zn2 expressed in Escherichia coli at 400 uM
Target sequence in this assay (Q9GZT9 2-426 limits assumed): as the sequence (Q9GZT9 2-426 limits assumed) above

Egl nine homolog 1 [10] = target: T1, Egl nine homolog 1; test: Inhibition of PHD2 (unknown origin)
Target sequence in this assay (Q9GZT9 whole entry, the tested form may be a part): as the sequence (Q9GZT9 whole entry, the tested form may be a part) above

For `O=C(O)CCC(=O)O`, the inhibition (Homo sapiens) was “inactive”.

In the case of `O=C(O)/C=C/c1ccc(O)c(O)c1`, the inhibition (Egl nine homolog 1 [1]) is reported as “inactive”.

In the case of `O=C(c1ccccc1)c1ccc(O)c(O)c1`, the inhibition (Egl nine homolog 1 [1]) is reported as “inactive”.

In the case of `Oc1ccccc1O`, the inhibition (Egl nine homolog 1 [1]) is reported as “inactive”.

For `O=C(O)Cc1cs/c(=N\C(=O)CS(=O)(=O)Cc2ccc3ccccc3c2)n1O`, the inhibition [2] was 90%, the Kd (Egl nine homolog 1 [3]) was 0.1 µM and the IC50 (Egl nine homolog 1 [4]) was 0.02 µM. It also gave a Kd (Egl nine homolog 1 [5]) of 0.11 µM.

`O=C(O)c1ccc(O)c2ncccc12` gave an inhibition [2] of 65%, a Kd [6] of 30 µM and an inhibition [7] of 75%. For the same molecule, the IC50 [8] was 20 µM.

For `CC(O)C(C)O` (stereo unspecified), the inhibition (Egl nine homolog 1 [1]) was “inactive”.

In the case of `O=C(O)CNC(=O)c1ccc(B(O)O)cn1`, the inhibition (Egl nine homolog 1 [9]) is reported as 50%.

In the case of `O=C(O)CC(C(=O)O)C(O)C(=O)O` (stereo unspecified) [ISOCITRATE], the inhibition (Homo sapiens) is reported as “inactive” and the IC50 (Egl nine homolog 1 [10]) is reported as over 10000 µM.

For `CCOC(=O)c1ccc(O)c(O)c1`, the inhibition (Egl nine homolog 1 [1]) was “inactive”.

With `O=C(O)CC(O)C(=O)O` (stereo unspecified) the inhibition (Homo sapiens) was “inactive”.

Work on `O=C(O)c1ccnc(C(=O)O)c1` yielded an inhibition [2] of 70%.

`O=C(O)/C=C/C(=O)O` [FUMARIC ACID] showed a Kd (Egl nine homolog 1 [3]) of 200 µM and an IC50 (Egl nine homolog 1 [4]) of 220 µM.

For `O=C(O)CC(O)(CC(=O)O)C(=O)O`, the inhibition (Homo sapiens) was “inactive”.

Molecule `O=C(O)CNC(=O)C(=O)O` [N-OXALYLGLYCINE] has an inhibition [2] of 30%, a Kd [6] of 4 µM and an inhibition [7] of 85%. It also gave an IC50 [8] of 50 µM.

For `O=C(O)c1ccc(O)c(O)c1`, the inhibition (Egl nine homolog 1 [1]) was “inactive”.

With `O=C(O)CNC(=O)c1nc(Cl)c2ccccc2c1O` the inhibition [2] was “inactive”, the Kd [6] was 140 µM and the inhibition [7] was 55%. The IC50 [8] was over 25 µM.
